Data published in paper PMC11161644, “An effective and rapidly degradable disinfectant from disinfection byproducts” (Nature Communications, 2024).

Legend:
aquatic invertebrates = test system: aquatic invertebrates; design: method as in earlier work; conditions: USEPA; cited from earlier work
[1] = Acute oral toxicity, Hodge and Sterner toxicity scale; conditions: in vivo, rat, inferred from LD10 of ref 49
Text: The lethal dose 10% (LD 10; the dose at which 10% of the individuals die)

SMILES | Toxicity rating to aquatic invertebrates (aquatic invertebrates) | LD50 [1]
Cc1cc(O)cc(C)c1Cl [PCMX, para-chloro-meta-xylenol, reference compound] | moderately toxic | –
O=C1C=C(Cl)C(=O)C(Cl)=C1 [2,6-DCQ, 2,6-dichlorobenzoquinone] | – | ≥ 1000 mg/kg
